Results reported in US8309546B2, “Morpholinopurine derivatives” (Daiichi Sankyo Company, Limited, priority 2008, dated 2012).

Columns and labels:
[1] = system: human colon cancer cell strain HT29; assay: Cell growth inhibition test (MTT), HT29; assay type: cell-based; conditions: HT-29, 72 h, HT29, 3 days culture, read-out: concentration exhibiting anti-cell effect (GI50)
Procedure, shortened: (§1)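 MTT read-out at 540 nm after 4 h formazan formation gives living cell count following 3-day compound exposure at 37° C, 5% CO2. Seeding: 5000 AN3CA, 1000 IGROV1, 5000 HT29 cells/well. Growth rate T/C % = 100×[(B−C)/(A−C)], with C taken before dosing; GI50 = concentration giving 50% growth.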

[2] = system: Akt (threonine 308) phosphorylation in AN3CA tumor; assay: Akt phosphorylation inhibition assay in xenograft; assay type: in vivo, female nude mouse; conditions: Mus musculus, AN3-CA, oral, 6 hr after dosing
Procedure, shortened: (§2)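 AN3CA human endometrial cancer cells grown as subcutaneous xenografts in female nude mice; compound dosed orally at a set concentration, tumors excised after a set time. Tumor lysates at equal protein were western blotted for p-Akt(T308) and p-S6(S235/236). Inhibition (%) = 100−100×(treated/untreated phospho signal).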

[3] = system: human endometrial cancer cell strain AN3CA; assay: Cell growth inhibition test (MTT), AN3CA; assay type: cell-based; conditions: AN3-CA, 72 h, 3 days culture, read-out: concentration exhibiting anti-cell effect (GI50)
Procedure, shortened: as §1

PI3Kα = PI3Kα (Homo sapiens, UniProt P42336); assay: PI3K kinase activity inhibition assay; assay type: biochemical; conditions: Kinase-Glo Plus ATP detection, read-out: IC50 against PI3K
Sequence of PI3Kα (P42336 whole entry, species assumed): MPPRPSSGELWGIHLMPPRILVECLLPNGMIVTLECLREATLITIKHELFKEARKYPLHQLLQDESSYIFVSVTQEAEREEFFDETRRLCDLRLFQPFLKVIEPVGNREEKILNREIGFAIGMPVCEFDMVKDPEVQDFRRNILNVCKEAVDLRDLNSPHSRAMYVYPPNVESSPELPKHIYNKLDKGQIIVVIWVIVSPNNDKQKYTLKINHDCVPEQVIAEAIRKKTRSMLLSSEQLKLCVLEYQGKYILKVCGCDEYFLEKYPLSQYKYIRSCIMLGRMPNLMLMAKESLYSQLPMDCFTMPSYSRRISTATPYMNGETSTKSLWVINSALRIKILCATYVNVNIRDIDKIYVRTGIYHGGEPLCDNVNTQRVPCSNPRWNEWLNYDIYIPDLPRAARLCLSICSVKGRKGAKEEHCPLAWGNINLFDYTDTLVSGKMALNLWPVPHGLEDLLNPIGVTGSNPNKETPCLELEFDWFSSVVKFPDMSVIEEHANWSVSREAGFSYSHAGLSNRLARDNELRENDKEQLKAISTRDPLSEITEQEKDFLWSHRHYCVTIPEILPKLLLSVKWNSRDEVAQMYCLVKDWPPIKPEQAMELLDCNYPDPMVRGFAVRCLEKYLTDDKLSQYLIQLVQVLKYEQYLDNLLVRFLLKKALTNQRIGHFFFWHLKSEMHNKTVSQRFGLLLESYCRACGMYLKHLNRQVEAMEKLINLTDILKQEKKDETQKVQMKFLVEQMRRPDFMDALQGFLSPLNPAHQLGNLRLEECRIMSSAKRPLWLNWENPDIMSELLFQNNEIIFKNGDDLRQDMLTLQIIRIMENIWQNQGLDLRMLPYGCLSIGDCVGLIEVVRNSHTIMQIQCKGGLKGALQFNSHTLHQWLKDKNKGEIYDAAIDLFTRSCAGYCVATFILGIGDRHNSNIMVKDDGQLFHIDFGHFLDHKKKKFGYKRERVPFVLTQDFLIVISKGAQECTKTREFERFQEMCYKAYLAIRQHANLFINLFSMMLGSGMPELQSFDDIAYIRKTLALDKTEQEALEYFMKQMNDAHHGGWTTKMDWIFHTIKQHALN
Sequence of PI3Kα (P27986 whole entry partner, species assumed): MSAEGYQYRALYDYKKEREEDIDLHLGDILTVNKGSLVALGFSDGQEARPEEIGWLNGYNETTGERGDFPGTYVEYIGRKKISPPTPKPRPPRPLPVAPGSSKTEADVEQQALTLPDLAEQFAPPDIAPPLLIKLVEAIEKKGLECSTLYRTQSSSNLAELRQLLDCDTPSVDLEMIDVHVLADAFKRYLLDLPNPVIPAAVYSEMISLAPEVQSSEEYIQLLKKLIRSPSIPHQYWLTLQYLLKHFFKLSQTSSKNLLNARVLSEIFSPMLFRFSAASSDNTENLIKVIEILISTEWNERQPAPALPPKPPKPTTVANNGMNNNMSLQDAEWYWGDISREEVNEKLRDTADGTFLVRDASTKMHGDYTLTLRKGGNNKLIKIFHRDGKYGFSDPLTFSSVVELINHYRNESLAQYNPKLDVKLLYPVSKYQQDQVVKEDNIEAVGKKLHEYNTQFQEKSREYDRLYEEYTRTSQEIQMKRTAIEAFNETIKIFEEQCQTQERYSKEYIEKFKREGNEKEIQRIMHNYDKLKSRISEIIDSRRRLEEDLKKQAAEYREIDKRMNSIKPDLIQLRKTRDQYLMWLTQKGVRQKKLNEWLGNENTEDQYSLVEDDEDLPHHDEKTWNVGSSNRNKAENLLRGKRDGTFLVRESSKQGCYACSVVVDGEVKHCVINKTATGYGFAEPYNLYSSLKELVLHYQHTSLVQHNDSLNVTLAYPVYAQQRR
Procedure, shortened: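 PI3Kα (50 nM solution) was reacted with 30 μM ATP and 45 μM PIP2 solutions, each in HEPES pH 7.4 with MgCl2 and DTT, for 2 h at room temperature. Remaining ATP was measured by Kinase-Glo Plus luminescence, and inhibition was derived from ATP consumed. IC50 was taken from curve fitting of the serial dilutions.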

[4] = system: S6 (serine 235 and 236) phosphorylation in AN3CA tumor; assay: S6 phosphorylation inhibition assay in xenograft; assay type: in vivo, female nude mouse; conditions: Mus musculus, AN3-CA, oral, 6 hr after dosing
Procedure, shortened: as §2

| SMILES | GI50 [1] [µM] | inhibition at 10 mg/kg [2] [%] | GI50 [3] [µM] | IC50 (PI3Kα) [µM] | inhibition at 10 mg/kg [4] [%] |
| --- | --- | --- | --- | --- | --- |
| C[C@@H]1CN(c2nc3c(N4CCOCC4)nc(-c4cnc(N)nc4)nc3n2CC(F)(F)F)CCN1C=O [Example 112, (2R)-4-[2-(2-Aminopyrimidin-5-yl)-6-morpholin-4-yl-9-(2,2,2-trifluoroethyl)-9H-purin-8-yl]-2-methylpiperazine-1-carboaldehyde] | ≤ 5 | > 60 | ≤ 5 | < 0.01 | > 90 |
| C[C@H]1CN(c2nc3c(N4CCOCC4)nc(-c4cnc(N)nc4)nc3n2CC(F)(F)F)CCN1C=O [Example 111, (2S)-4-[2-(2-Aminopyrimidin-5-yl)-6-morpholin-4-yl-9-(2,2,2-trifluoroethyl)-9H-purin-8-yl]-2-methylpiperazine-1-carboaldehyde] | ≤ 5 | > 60 | ≤ 5 | < 0.01 | > 90 |
| CC[C@H]1CN(c2nc3c(N4CCOCC4)nc(-c4cnc(N)nc4)nc3n2CC(F)(F)F)CCN1C(=O)[C@H](C)O [Example 77, (2S)-1-{(2S)-4-[2-(2-Aminopyrimidin-5-yl)-6-morpholin-4-yl-9-(2,2,2-trifluoroethyl)-9H-purin-8-yl]-2-ethylpiperazin-1-yl}-1-oxopropan-2-ol] | ≤ 5 | > 60 | ≤ 5 | < 0.01 | > 90 |
| CC(C)Cn1c(N2CCN(C(=O)[C@H](C)O)[C@H](C)C2)nc2c(N3CCOCC3)nc(-c3cnc(N)nc3)nc21 [Example 103, (2S)-1-{(2R)-4-[2-(2-Aminopyrimidin-5-yl)-9-isobutyl-6-morpholin-4-yl-9H-purin-8-yl]-2-methylpiperazin-1-yl}-1-oxopropan-2-ol] | ≤ 5 | > 60 | ≤ 5 | 0.01 to 0.02 | > 90 |
| CNc1ncc(-c2nc(N3CCOCC3)c3nc(N4CCN(S(C)(=O)=O)[C@H](C)C4)n(CC(F)(F)F)c3n2)cn1 [Example 106, N-Methyl-5-{8-[(3R)-3-methyl-4-(methylsulfonyl)piperazin-1-yl]-6-morpholin-4-yl-9-(2,2,2-trifluoroethyl)-9H-purin-2-yl}pyrimidin-2-amine] | ≤ 5 | > 60 | ≤ 5 | < 0.01 | > 90 |
| C[C@H](O)C(=O)N1CCN(c2nc3c(N4CCOCC4)nc(-c4cnc(N)nc4)nc3n2CC(F)(F)F)CC1 [Example 68, (2S)-1-{4-[2-(2-Aminopyrimidin-5-yl)-6-morpholin-4-yl-9-(2,2,2-trifluoroethyl)-9H-purin-8-yl]piperazin-1-yl}-1-oxopropan-2-ol] | ≤ 5 | > 60 | ≤ 5 | 0.01 to 0.02 | > 90 |
| CC(C)Cn1c(N2CCN(C(=O)C[C@H](C)O)[C@@H](C)C2)nc2c(N3CCOCC3)nc(-c3cnc(N)nc3)nc21 [Example 85, (2S)-4-{(2S)-4-[2-(2-Aminopyrimidin-5-yl)-9-isobutyl-6-morpholin-4-yl-9H-purin-8-yl]-2-methylpiperazin-1-yl}-4-oxobutan-2-ol] | ≤ 5 | > 60 | ≤ 5 | < 0.01 | > 90 |
| CS(=O)(=O)C1CCN(c2nc3c(N4CCOCC4)nc(-c4cnc(N)nc4)nc3n2CC(F)(F)F)CC1 [Example 57, 5-{8-[4-(Methylsulfonyl)piperidin-1-yl]-6-morpholin-4-yl-9-(2,2,2-trifluoroethyl)-9H-purin-2-yl}pyrimidin-2-amine] | ≤ 5 | 30 to 60 | ≤ 5 | < 0.01 | > 90 |
| C[C@H](O)C(=O)N1CCN(c2nc3c(N4CCOCC4)nc(-c4cnc(N)nc4)nc3n2CC(F)(F)F)C[C@H]1C [Example 110, (2S)-1-{(2R)-4-[2-(2-Aminopyrimidin-5-yl)-6-morpholin-4-yl-9-(2,2,2-trifluoroethyl)-9H-purin-8-yl]-2-methylpiperazin-1-yl}-1-oxopropan-2-ol] | ≤ 5 | > 60 | ≤ 5 | < 0.01 | > 90 |
| C[C@@H](O)CC(=O)N1CCN(c2nc3c(N4CCOCC4)nc(-c4cnc(N)nc4)nc3n2CC(F)(F)F)CC1 [Example 70, (2R)-4-{4-[2-(2-Aminopyrimidin-5-yl)-6-morpholin-4-yl-9-(2,2,2-trifluoroethyl)-9H-purin-8-yl]piperazin-1-yl}-4-oxobutan-2-ol] | ≤ 5 | > 60 | ≤ 5 | 0.01 to 0.02 | > 90 |
| CC(=O)N1[C@H](C)CN(c2nc3c(N4CCOCC4)nc(-c4cnc(N)nc4)nc3n2CC2CC2)C[C@@H]1C [Example 98, 5-{8-[4-Acetyl-cis-3,5-dimethylpiperazin-1-yl]-9-(cyclopropylmethyl)-6-morpholin-4-yl-9H-purin-2-yl}pyrimidin-2-amine] | ≤ 5 | 30 to 60 | ≤ 5 | < 0.01 | > 90 |
| CCC(=O)N1CCN(c2nc3c(N4CCOCC4)nc(-c4cnc(N)nc4)nc3n2CC(F)(F)F)CC1 [Example 117, 5-[6-Morpholin-4-yl-8-(4-propionylpiperazin-1-yl)-9-(2,2,2-trifluoroethyl)-9H-purin-2-yl]pyrimidin-2-amine] | ≤ 5 | 30 to 60 | ≤ 5 | < 0.01 | 70 to 90 |
| CNc1ncc(-c2nc(N3CCOCC3)c3nc(N4CCN(C(C)=O)CC4)n(CC(F)(F)F)c3n2)cn1 [Example 134, 5-[8-(4-Acetylpiperazin-1-yl)-6-morpholin-4-yl-9-(2,2,2-trifluoroethyl)-9H-purin-2-yl]-N-methylpyrimidin-2-amine] | ≤ 5 | 30 to 60 | ≤ 5 | < 0.01 | > 90 |
| C[C@H](O)C(=O)N1CCN(c2nc3c(N4CCOCC4)nc(-c4cnc(N)nc4)nc3n2CC2CC2)C[C@@H]1C [Example 92, (2S)-1-{(2S)-4-[2-(2-Aminopyrimidin-5-yl)-9-(cyclopropylmethyl)-6-morpholin-4-yl-9H-purin-8-yl]-2-methylpiperazin-1-yl}-1-oxopropan-2-ol] | ≤ 5 | > 60 | ≤ 5 | 0.01 to 0.02 | > 90 |
| C[C@@H]1CN(c2nc3c(N4CCOCC4)nc(-c4cnc(N)nc4)nc3n2CC(F)(F)F)CCN1S(C)(=O)=O [Example 61, 5-{8-[(3R)-3-Methyl-4-(methylsulfonyl)piperazin-1-yl]-6-morpholin-4-yl-9-(2,2,2-trifluoroethyl)-9H-purin-2-yl}pyrimidin-2-amine] | ≤ 5 | > 60 | ≤ 5 | < 0.01 | > 90 |
| C[C@@H](O)C(=O)N1CCN(c2nc3c(N4CCOCC4)nc(-c4cnc(N)nc4)nc3n2CC2CC2)C[C@@H]1C [Example 113, (2R)-1-{(2S)-4-[2-(2-Aminopyrimidin-5-yl)-9-(cyclopropylmethyl)-6-morpholin-4-yl-9H-purin-8-yl]-2-methylpiperazin-1-yl}-1-oxopropan-2-ol] | ≤ 5 | > 60 | ≤ 5 | 0.01 to 0.02 | > 90 |
| CC(=O)N1CCN(c2nc3c(N4CCOCC4)nc(-c4cnc(N)nc4)nc3n2CC(F)(F)F)C[C@H]1C [Example 60, 5-{8-[(3R)-4-Acetyl-3-methylpiperazin-1-yl]-6-morpholin-4-yl-9-(2,2,2-trifluoroethyl)-9H-purin-2-yl}pyrimidin-2-amine] | ≤ 5 | > 60 | ≤ 5 | < 0.01 | > 90 |
| Nc1ncc(-c2nc(N3CCOCC3)c3nc(N4CCN(C(=O)CO)CC4)n(CC(F)(F)F)c3n2)cn1 [Example 67, 2-{4-[2-(2-Aminopyrimidin-5-yl)-6-morpholin-4-yl-9-(2,2,2-trifluoroethyl)-9H-purin-8-yl]piperazin-1-yl}-2-oxoethanol] | ≤ 5 | 30 to 60 | ≤ 5 | < 0.01 | 70 to 90 |
| CC(C)Cn1c(N2CCN(C=O)CC2)nc2c(N3CCOC[C@@H]3C)nc(-c3cnc(N)nc3)nc21 [Example 132, 4-{2-(2-Aminopyrimidin-5-yl)-9-isobutyl-6-[(3S)-3-methylmorpholin-4-yl]-9H-purin-8-yl}piperazine-1-carboaldehyde] | ≤ 5 | > 60 | ≤ 5 | < 0.01 | > 90 |
| CS(=O)(=O)N1CCN(c2nc3c(N4CCOCC4)nc(-c4cnc(N)nc4)nc3n2CC(F)F)CC1 [Example 64, 5-{9-(2,2-Difluoro-ethyl)-8-[4-(methylsulfonyl)piperazin-1-yl]-6-morpholin-4-yl-9H-purin-2-yl}pyrimidin-2-amine] | ≤ 5 | 30 to 60 | ≤ 5 | 0.01 to 0.02 | > 90 |
